The nature of series [1]: in vitro. The conditions noted are these: human, WI-38 cells (normal embryonic lung diploid cell line).
Description: (§1) In a further example cytotoxicity tests were performed with three different cell lines (FIG. 2a, 2b, 2c): • WI-38 (human diploid cell line from normal embryonic lung tissue) • A549 (human lung adenocarcinoma epithelial cell line) and • HS683 (human neuronal glioma cell line).
(§2) Thereby, cell viability was determined on the basis of the mitochondria-dependent reduction of MTT (3-[4,5-dimethyltiazol 2yl]-2,5-diphenyltetrazolium bromide) to formazan. […] Next cells were treated with 20 μl of MTT. After 3 hours of incubation at 37° C., the formazan blue formed in the cells was dissolved in 100 μl of SDS (sodium dodecylsulfate) for 3 hours in 37° C. The optical density was measured at 570 nm.
(§3) After the cytotoxicity tests LC50 (LC50-lethal concentration, 50%-dose required to kill half of the cells after a specified test duration) were estimated for each cell lines and PBLs (leukocytes of peripheral blood).
The nature of series [2]: in vitro. The conditions noted are these: human, A549 cells (lung adenocarcinoma epithelial cell line).
Description: as §1, §2, §3
Series [3] is described as follows: in vitro. Particulars: human, HS683 cells (neuronal glioma cell line).
Description: as §1, §2, §3
Series [4] deals with WI-38 cells. Put plainly: cells. The conditions noted are these: Homo sapiens, WI-38, 96 h, read-out: concentration that inhibits 50% of the proliferation.
The subject of series [5] is A549 cells. Particulars: A549, 96 hours incubation, MTT.
For series [6] the following is noted: background statement; cited from earlier work.
Another series concerns IL-6 production. The conditions noted are these: human PBLs; 1 mg/ml, 500 μg/ml, 300 μg/ml.
Series [7] is described as follows: in vitro. The conditions noted are these: human, peripheral blood leukocytes (PBLs).
Description: as §2
(§4) After the cytotoxicity tests LC50 (LC50-lethal concentration, 50%-dose required to kill half of the cells after a specified test duration) were estimated for each cell lines and PBLs (leukocytes of peripheral blood). Additionally for PBLs LC10 and LC5 were calculated.
(§5) On the basis of the results of MTT assay for human leukocytes the LC50, LC10 and LC5 were evaluated.
Series [8] concerns WI-38 cells. The conditions noted are these: WI-38, 96 hours incubation, MTT.
The test system of series [9] is human PBLs (leukocytes of peripheral blood). Particulars: MTT, 48 hours.
Description: as §2, §4, §5
For series [10] the following is noted: after 72 h treatment, n=10 per group; compared to antimicrobians/antimycotics (group B) and no treatment (group C).
Series [11] has as its system HS-683 cells. Put plainly: cells. The conditions noted are these: Homo sapiens, Hs 683, 96 h, read-out: concentration that inhibits 50% of the proliferation.
Series [12] deals with HS-683 cells. Particulars: HS-683, 96 hours incubation, MTT.
Series [13] deals with A549 cells. As to the kind of experiment: cells. Particulars: Homo sapiens, A549, 96 h, read-out: concentration that inhibits 50% of the proliferation.
The subject of another series is WI-38, A549 and HS 683. Put plainly: cells. Particulars: Homo sapiens, read-out: doses that inhibit 50% of cell proliferation (summary).
The conditions of series [14]: background statement; cited from earlier work. This is another data set of the same source.
The subject of the next series is H1N1 virus. Particulars: 0,002 mg/kg each 24 hours; 24 hours after treatment; versus control group.

This is an account of results in patent publication US11931351B2, “(S)-3-[1-methylpyrrolidin-2-yl]pyridine, analogues thereof, precursors thereof, or its derivatives, for the use as a pharmaceutical in form of a parenteral administration and a process for the preparation of an injectable substance” (priority 2019, dated 2024).

Values after ≈ are worked out from the molar mass of the structure shown. Where only a bound is given, the exact number is not on record here.

Take `CN1CCC[C@H]1c1cccnc1` [(S)-3-[1-Methylpyrrolidin-2-yl]pyridine]: the CC50 at 48 h in the series “in vitro [1]” is 3000 µg/mL (≈ 18.5 mM); in “in vitro [2]” it was 4500 µg/mL (≈ 27.7 mM); in “in vitro [3]”, 3500 µg/mL (≈ 21.6 mM); in the series “in vitro [7]”, 7000 µg/mL (≈ 43.1 mM). Moreover, the IC50 in the series on WI-38 cells [4] was 1000 µg/mL (≈ 6.16 mM); with HS-683 cells [11], 2900 µg/mL (≈ 17.9 mM); with A549 cells [13] it was 2000 µg/mL (≈ 12.3 mM); in the series on WI-38, A549 and HS 683, more than 1000 µg/mL. Further, the “concentration that inhibits 99% of the proliferation” value was found to be 5.5 mg/mL with A549 cells [5], 4.5 mg/mL in the series on WI-38 cells [8] and 5.5 mg/mL in the series on HS-683 cells [12]. The “half-life in the body” value in [6] is recorded as “approximately two”. Further, the “effect on IL-6 production” value with IL-6 production is “no effect”. The LC5 in series [9] came to 0.5 mg/mL. Moreover, in [9], the LC10 came out at 1 mg/mL (≈ 6.16 mM). Besides, in [10], the “healing effect on ulcer” value is “increased healing effect”. Also, the miscibility with water result in [14] is recorded as “miscible with water”. The “solubility in alcohol, ether or light petroleum” value in series [14] is reported as “readily soluble”. In addition, the “egg production of H1N1 infected chicken” value in the series with H1N1 virus is given as “began to lay off eggs”.
